Assay results from patent US12337037B2, “Taxol conjugate compounds, pharmaceutical compositions comprising the same, and methods for their use” (N1 Life, Inc, priority 2021, dated 2025).
Several values for one entry are separate records, joined by “and”; a condition that tells them apart may be missing. Equal entries are not always repeated.

Legend:
Stability in plasma, dog = assay type: in vitro ADME; settings: for half-life: 37° C., read-out: Mean T1/2 (converted)
Description: Working solutions of test compounds were prepared in PBS (pH 7.4). Propantheline was used as positive control for human, monkey, dog and mouse plasma in the assay. Mevinolin was used as positive control for rat plasma in this assay. 1 mM propantheline working solution was prepared in acetonitrile. 1 mM mevinolin working solution was prepared in DMSO. Incubation buffer of 475 μL plasma for each cell was added into the incubation plate and pre-warmed at 37° C. for 15 minutes. After the pre-incubation, 25 μL of working solution (test compounds or control compounds) was spiked to plasma. For Compound 5 and Compound 3, the final concentration of organic concentration was 0%. For Taxol, the final concentration of organic solvents was 0.25%. The assay was performed in duplicate. The reaction samples were incubated at 37° C. Aliquots of 50 μL were taken from the reaction samples at 0, 0.25, 0.5, 1, 2, 4, 6, 8 and 24 hours. The reactions were stopped by the addition of 450 μL of ice-cold quench solution (methanol with 2% FA containing internal standards). All samples were vortexed for 10 minutes, following by centrifugation at 3,220 g for 30 minutes to precipitate proteins. 100 μL of the supernatant from each well was transferred to a new plate. The supernatant was diluted with ultrapure water. Samples were analyzed by LC-MS/MS. All calculations were carried out using Microsoft Excel. Peak area ratios were determined from extracted ion chromatograms. Percent compounds remaining at each time point were calculated by the following equation: Remaining Percentaget min(%)=Peak Area Ratiot min/Peak Area Ratio0 min×100
Peak Area Ratiot min is peak area ratio of control and test compounds at t min; and
Peak Area Ratio0 min is peak area ratio of control and test compounds at zero time point.
The slope value, k, was determined by linear regression of the natural logarithm of the remaining percentage of the parent drug vs. incubation time curve.
The in vitro half-life (in vitro t1/2) was determined from the slope value: in vitro t1/2=(0.693/k)

[1] = test system: NCI-H460-luc2 human intracranial cells; experiment: Efficacy against brain cancer: survival in NCI-H460-luc2 intracranial model; assay type: in vivo, Female BALB/c nude mice; settings: for Increase Life Span (%): vs vehicle group; for Median Survival Time: MST ± SEM
Description: Cell Culture: Luciferase marked NCI-H460-luc2 human intracranial cells were maintained in vitro as a monolayer culture in ATCC formulated RPMI1640 medium supplemented with 10% heat inactivated fetal bovine serum, 100 U/mL penicillin and 100 μg/mL streptomycin at 37° C. in an atmosphere of 5% CO2 in air. The tumor cells were routinely subcultured twice weekly by trypsin-EDTA treatment. The cells growing in an exponential growth phase were harvested and counted for tumor inoculation.
Tumor Inoculation and Animal Grouping: Female BALB/c nude mice were anesthetized with avertin (20 μL/g). The animals were dosed intraperitoneally with 10 mg/kg of carprofen 30 minutes post-surgery for pain relief.
The anesthetized mouse was properly positioned. The surgical area was prepped with 70% ethanol solution. Using a sterile scalpel, a sagittal incision was made over the parieto-occipital bone, approximately 1 cm long. The exposed skull surface was then cleaned using a cotton swab soaked in 0.9% saline. Prior to tumor cell injection, a sterile 25 gauge sharp needle was used to puncture the skull at 2 mm to the right of the bregma and 1 mm anterior to the coronal suture, thereby creating an opening for the injection of tumor cells. Prior to drawing cells into the syringe, the contents of the cell suspension was mixed by tapping with finger. The syringe was loaded with the desired amount of cell suspension, and extra care was taken to avoid air bubbles. The outside of syringe was then cleaned with an alcohol swab to wipe the exterior free of any adherent cells, which helped to prevent extracranial tumor establishment and growth. To ensure that the appropriate injection depth was achieved, a 3 mm length was cut off on pointed end of a P20 pipetteman tip by a scalpel. This section of the tip was fitted over the syringe to limit the injection depth, and to ensure that the tip of the syringe needle was 3 mm from the underside of the skull. The syringe was placed perpendicular to the skull, in the hole previously created. And the cell suspension was slowly injected (a 3 μL suspension contains 1×10^5 NCI-H460-luc2 cells in 20% Matrigel should be injected over a 1 minute period). Intraventricular injection of cells and subsequent spinal dissemination was prevented by appropriate angle of syringe insertion. Upon completion of injection, the needle was left in place for another minute, and then slowly withdrawn. The hole as closed with medical anastomotic glue (OB). Using forceps, the scalp was drawn together over the skull and the incision was closed with surgical suture. The mice were kept warm until completely recovered from anesthesia.
Animals were selected and randomized (based on their bioluminescence density) on day 4 after tumor implantation.
Observations: During routine monitoring, the animals were checked daily for any effects of tumor growth and treatments on normal behavior such as mobility, food and water consumption (by looking only), body weight gain/loss (body weights were measured twice weekly or daily), eye/hair matting and any other abnormal effect stated in the protocol. Death and observed clinical signs were recorded on the basis of the numbers of animals within each subset.
Bioluminescence Measurements and Endpoints: The surgically inoculated mice were weighed and intraperitoneally administered luciferin at a dose of 150 mg/kg. Ten to fifteen minutes after the luciferin injection, the animals were pre-anesthetized with the mixture gas of oxygen and isoflurane. When the animals were in a complete anesthetic state, the mice were moved into the imaging chamber for bioluminescence measurements with an IVIS (Lumina II) imaging system.
The major endpoint was to determine if the tumor bioluminescence growth can be delayed, decreased, or vanished. […] The bioluminescence of the whole animal body, including primary and metastatic tumors, was measured and recorded once per week according to protocol (bioluminescence data not shown). […]

Row | SMILES | Percent Increase of T1/2, Compound 3 over Compound 5 (Stability in plasma, dog) | half-life (Stability in plasma, dog) | Increase Life Span (%) ([1]; Compound 3 9.6 mg/kg) | Median Survival Time ([1]; Compound 3 9.6 mg/kg) | Increase Life Span (%) ([1]; Compound 3 19.2 mg/kg) | Median Survival Time ([1]; Compound 3 19.2 mg/kg) | survivors at the end point ([1]; Compound 3 38.4 mg/kg) | Increase Life Span (%) ([1]; Compound 3 38.4 mg/kg) | Median Survival Time ([1]; Compound 3 38.4 mg/kg, 38.4 mg/kg) | Increase Life Span (%) ([1]; Paclitaxel 10 mg/kg) | Median Survival Time ([1]; Paclitaxel 10 mg/kg)
1 | CC(=O)N[C@@H](CSSCCCC(=O)OC(C(=O)O[C@H]1C[C@@]2(O)[C@@H](OC(=O)c3ccccc3)[C@@H]3[C@]4(OC(C)=O)CO[C@@H]4C[C@H](O)[C@@]3(C)C(=O)[C@H](OC(C)=O)C(=C1C)C2(C)C)[C@@H](NC(=O)c1ccccc1)c1ccccc1)C(=O)N[C@H](CCCNC(=N)N)C(=O)N[C@H](CCCNC(=N)N)C(=O)N[C@H](CCCNC(=N)N)C(=O)N[C@H](CCCNC(=N)N)C(=O)N[C@H](CCCNC(=N)N)C(=O)N[C@H](CCCNC(=N)N)C(=O)N[C@H](CCCNC(=N)N)C(=O)N[C@H](CCCNC(=N)N)C(N)=O (stereo partly drawn) [Compound 3, Ac-L-Cysteine (paclitaxel-4-mercaptobutanoate)-D-Arginine8-NH2] | 1% | 2.79 h | 0.00% | 14 days | −28.57% | 10 ± 2 days | one mouse in Compound 3 38.4 mg/kg group was still alive | 0.00% | 14 days and 14 ± 1 days |  | 
2 | CC(=O)N[C@H](CSSCCCC(=O)O[C@@H](C(=O)O[C@H]1C[C@@]2(O)[C@@H](OC(=O)c3ccccc3)[C@@H]3[C@]4(OC(C)=O)CO[C@@H]4C[C@H](O)[C@@]3(C)C(=O)[C@H](OC(C)=O)C(=C1C)C2(C)C)[C@@H](NC(=O)c1ccccc1)c1ccccc1)C(=O)N[C@H](CCCNC(=N)N)C(=O)N[C@H](CCCNC(=N)N)C(=O)N[C@H](CCCNC(=N)N)C(=O)N[C@H](CCCNC(=N)N)C(=O)N[C@H](CCCNC(=N)N)C(=O)N[C@H](CCCNC(=N)N)C(=O)N[C@H](CCCNC(=N)N)C(=O)N[C@H](CCCNC(=N)N)C(N)=O [Compound 5, Ac-D-Cysteine (paclitaxel-4-mercaptobutanoate)-D-Arginine8-NH2] |  | 2.76 h |  |  |  |  |  |  |  |  | 
3 | CC(=O)O[C@H]1C(=O)[C@@]2(C)[C@H]([C@H](OC(=O)c3ccccc3)[C@]3(O)C[C@H](OC(=O)[C@H](O)[C@@H](NC(=O)c4ccccc4)c4ccccc4)C(C)=C1C3(C)C)[C@]1(OC(C)=O)CO[C@@H]1C[C@@H]2O [Taxol, paclitaxel] |  |  |  |  |  |  |  |  |  | −28.57% | 10 days and 10 ± 1 days
